Read-outs that look alike come from different tables or passages of the source. Values belong to the molecule of their own block, whether it stands above or below them.
Assays:
DLD1 BRCA2 (−/−) cells = experiment: 7-day cell viability assay (CellTiter-Glo), DLD1 BRCA2 (−/−); format: cell-based, human; conditions: n=2, read-out: Viability IC50 (uM) DLD1 BRCA2 null
Experimental: (§1) Cell lines DLD1 WT and DLD1 BRCA2 (−/−) (Horizon Discovery Cat No. HD PAR-008 and HD-105-007) were plated in 384-well culture plates at seeding densities of 100cells/50 ul/well and 200 cells/50 uL/well respectively. The seeding densities are pre-determined from the growth curve kinetics performed to ensure log linear phase of cell growth for these 2 cell lines. These assay plates are then placed in the incubator at 37° C., 5% CO2, relative humidity >90% for a few hours before addition of test compounds. Compounds are dispensed using the Tecan HPD300 or Echo based on the plate map in the appropriate wells of the 384-well plates. The cells are treated with nine-point dose response with 3-fold serial dilutions of test compounds starting at 10 uM top concentration. After addition of the test compounds, the plates are incubated at 37° C., 5% CO2, relative humidity >90% for 7 days. CellTiter-Glo (Promega Cat. No. G7573), ATP detection reagent is prepared according to manufacturer's specifications. Cell assay plates are removed from incubator and bring to room temperature (RT) by letting them sit at bench top for at least 15 min. Using the MultiDrop liquid handler or a multichannel pipette, 35 μL/well of CTG is added and the plates are then placed shakes for 5 seconds, RT.

DLD1 WT cells = experiment: 7-day cell viability assay (CellTiter-Glo), DLD1 parental (WT); format: cell-based, human; conditions: n=2
Experimental: as §1

[1] = molecular target: biotinylated Avi-POLθ[2-894] (Homo sapiens (Human), UniProt O75417); experiment: POLθ ATPase assay (ADP-Glo); conditions: n=2, read-out: Biochemical ATPase ADPGlo IC50
[2] = Homo sapiens, DLD-1, 168 h, 7-day CellTiter-Glo
[3] = Homo sapiens, DLD-1, 168 h, 7-day viability

biotinylated Avi-POLθ[2-894], sequence (O75417 2-894): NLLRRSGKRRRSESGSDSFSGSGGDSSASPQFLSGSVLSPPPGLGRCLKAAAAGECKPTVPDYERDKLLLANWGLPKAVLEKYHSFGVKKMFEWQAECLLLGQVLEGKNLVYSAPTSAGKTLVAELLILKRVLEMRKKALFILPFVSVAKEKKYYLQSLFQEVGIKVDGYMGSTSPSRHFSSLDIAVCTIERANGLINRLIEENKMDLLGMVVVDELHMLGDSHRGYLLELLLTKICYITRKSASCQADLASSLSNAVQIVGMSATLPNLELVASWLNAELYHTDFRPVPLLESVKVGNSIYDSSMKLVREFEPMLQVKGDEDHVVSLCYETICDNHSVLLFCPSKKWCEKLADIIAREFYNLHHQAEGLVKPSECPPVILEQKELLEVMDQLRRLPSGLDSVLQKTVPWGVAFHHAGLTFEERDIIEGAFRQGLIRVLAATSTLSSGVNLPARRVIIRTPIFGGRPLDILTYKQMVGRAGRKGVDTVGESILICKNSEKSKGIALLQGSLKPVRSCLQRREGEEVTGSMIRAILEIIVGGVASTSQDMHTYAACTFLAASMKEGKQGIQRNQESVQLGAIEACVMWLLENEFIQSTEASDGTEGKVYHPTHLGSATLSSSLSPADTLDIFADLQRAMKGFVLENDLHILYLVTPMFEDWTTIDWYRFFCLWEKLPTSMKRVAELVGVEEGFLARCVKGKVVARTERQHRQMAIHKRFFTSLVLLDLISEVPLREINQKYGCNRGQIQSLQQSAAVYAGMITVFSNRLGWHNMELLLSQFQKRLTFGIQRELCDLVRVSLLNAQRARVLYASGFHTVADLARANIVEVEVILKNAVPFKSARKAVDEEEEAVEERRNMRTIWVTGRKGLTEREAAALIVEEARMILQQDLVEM

IC50 (DLD1 BRCA2 (−/−) cells; [2]): 0.001 to 0.1 µM
Molecule: COc1nc(C(F)(F)F)ccc1C(=O)N1Cc2nc(NC(=O)c3cnc(C)cc3-c3cc(C(F)F)cnc3OC)sc2C1 [Example 1032, 5-(difluoromethyl)-2-methoxy-N-(5-(2-methoxy-6-(trifluoromethyl)nicotinoyl)-5,6-dihydro-4H-pyrrolo[3,4-d]thiazol-2-yl)-6′-methyl-[3,4′-bipyridine]-3′-carboxamide]
IC50 (DLD1 WT cells; [2]): ≥ 10 µM

IC50 (DLD1 BRCA2 (−/−) cells; [2]): 0.001 to 0.1 µM
Molecule: COc1cnc(Cl)cc1-c1cc(C)ncc1C(=O)Nc1nc2c(s1)CN(C(=O)c1ncc(C(F)F)cc1F)C2
IC50 (DLD1 WT cells; [2]): ≥ 10 µM

IC50 (DLD1 BRCA2 (−/−) cells; [2]): 0.25 to 0.5 µM
Molecule: COc1cnc(Cl)cc1-c1cc(C)ncc1C(=O)Nc1nc2c(s1)CN(C(=O)c1ncc(C(F)F)nc1C)C2 (racemic)
IC50 (DLD1 WT cells; [2]): ≥ 10 µM

IC50 (DLD1 BRCA2 (−/−) cells; [2]): 0.001 to 0.1 µM
Molecule: COc1cnc(Cl)cc1-c1cc(C)ncc1C(=O)Nc1nc2c(s1)CN(C(=O)c1nc(C)c(OC(F)(F)F)cc1C)C2 [Example 1028, 2′-chloro-N-(5-(3,6-dimethyl-5-(trifluoromethoxy)picolinoyl)-5,6-dihydro-4H-pyrrolo[3,4-d]thiazol-2-yl)-5′-methoxy-6-methyl-[4,4′-bipyridine]-3-carboxamide]
IC50 (DLD1 WT cells; [2]): ≥ 10 µM

IC50 (DLD1 BRCA2 (−/−) cells; [2]): 0.001 to 0.1 µM
Molecule: COc1cnc(Cl)cc1-c1cc(C)ncc1C(=O)Nc1nc2c(s1)CN(C(=O)c1cc(C)c(C#N)cn1)C2 [Example 611]
IC50 (DLD1 WT cells; [2]): ≥ 10 µM

IC50 (DLD1 BRCA2 (−/−) cells; [2]): 0.001 to 0.1 µM
Molecule: COc1cnc(Cl)cc1-c1cc(C)ncc1C(=O)Nc1nc2c(s1)CN(C(=O)c1cnc(OC(F)F)c(C)n1)C2 [Example 990, 2′-chloro-N-(5-(5-(difluoromethoxy)-6-methylpyrazine-2-carbonyl)-5,6-dihydro-4H-pyrrolo[3,4-d]thiazol-2-yl)-5′-methoxy-6-methyl-[4,4′-bipyridine]-3-carboxamide]
IC50 (DLD1 WT cells; [2]): ≥ 10 µM

IC50 [1]: 1 to 15 nM | IC50 (DLD1 BRCA2 (−/−) cells; [3]): 0.001 to 0.1 µM
Molecule: CCc1c(Cl)c(C(=O)N2Cc3nc(NC(=O)c4cnc(C)cc4-c4cc(Cl)ncc4OC)sc3C2)nn1C [Example 70, 2′-chloro-N-(5-(4-chloro-5-ethyl-1-methyl-1H-pyrazole-3-carbonyl)-5,6-dihydro-4H-pyrrolo[3,4-d]thiazol-2-yl)-5′-methoxy-6-methyl-[4,4′-bipyridine]-3-carboxamide]

IC50 [1]: 1 to 15 nM | IC50 (DLD1 BRCA2 (−/−) cells; [3]): 0.001 to 0.1 µM
Molecule: COc1cnc(Cl)cc1-c1cc(C)ncc1C(=O)Nc1nc2c(s1)CN(C(=O)c1ccc(Cl)nc1OC)C2 [Example 20, 2′-chloro-N-(5-(6-chloro-2-methoxynicotinoyl)-5,6-dihydro-4H-pyrrolo[3,4-d]thiazol-2-yl)-5′-methoxy-6-methyl-[4,4′-bipyridine]-3-carboxamide]

IC50 [1]: 15 to 50 nM
Molecule: COc1ccc(C#N)cc1-c1cc(C)ncc1C(=O)Nc1nc2c(s1)CN(S(=O)(=O)C1(C)CC1)C2

IC50 [1]: 1 to 15 nM | IC50 (DLD1 BRCA2 (−/−) cells; [3]): 0.001 to 0.1 µM
Molecule: CCc1nn(C)c(C(=O)N2Cc3nc(NC(=O)c4cnc(C)cc4-c4cc(Cl)ncc4OC)sc3C2)c1Cl [Example 56, 2′-chloro-N-(5-(4-chloro-3-ethyl-1-methyl-1H-pyrazole-5-carbonyl)-5,6-dihydro-4H-pyrrolo[3,4-d]thiazol-2-yl)-5′-methoxy-6-methyl-[4,4′-bipyridine]-3-carboxamide]

IC50 [1]: 50 to 150 nM
Molecule: COc1ccccc1-c1cc(C)ncc1C(=O)Nc1nc2c(s1)CN(S(=O)(=O)NCC(C)C)C2

IC50 ([1]; POLθ ATPase, ADP-Glo): 1 to 15 nM
Molecule: COc1cnc(Cl)cc1-c1cc(C)ncc1C(=O)Nc1nc2c(s1)CN(C(=O)c1cncc(C)n1)C2

Further lines, the molecule ahead of its results:

Molecule: COc1cnc(Cl)cc1-c1cc(C)ncc1C(=O)Nc1nc2c(s1)CN(C(=O)c1ncc(C(F)F)cc1C)C2
IC50 (DLD1 BRCA2 (−/−) cells; [2]): 0.001 to 0.1 µM | IC50 (DLD1 WT cells; [2]): ≥ 10 µM

Molecule: 2′-chloro-N-(5-(4-cyano-1-methyl-1H-pyrazole-5-carbonyl)-5,6-dihydro-4H-pyrrolo[3,4-d]thiazol-2-yl)-5′-methoxy-6-methyl-[4,4′-bipyridine]-3-carboxamide [Example 581]
IC50 (DLD1 BRCA2 (−/−) cells; 7-day CellTiter-Glo): 0.001 to 0.1 µM | IC50 (DLD1 WT cells; 7-day CellTiter-Glo): ≥ 10 µM

Molecule: COc1cnc(Cl)cc1-c1cc(C)ncc1C(=O)Nc1nc2c(s1)CN(C(=O)c1ccn3nccc3n1)C2
IC50 (DLD1 BRCA2 (−/−) cells; [2]): 0.001 to 0.1 µM | IC50 (DLD1 WT cells; [2]): ≥ 10 µM

Molecule: CCc1nc(C(F)(F)F)ccc1C(=O)N1Cc2nc(NC(=O)c3cnc(C)cc3-c3cc(Cl)ncc3OC)sc2C1 [Example 970, 2′-chloro-N-(5-(2-ethyl-6-(trifluoromethyl)nicotinoyl)-5,6-dihydro-4H-pyrrolo[3,4-d]thiazol-2-yl)-5′-methoxy-6-methyl-[4,4′-bipyridine]-3-carboxamide]
IC50 (DLD1 BRCA2 (−/−) cells; [2]): 0.001 to 0.1 µM | IC50 (DLD1 WT cells; [2]): ≥ 10 µM

Molecule: 2′-chloro-N-(5-(2-(difluoromethyl)pyrimidine-4-carbonyl)-5,6-dihydro-4H-pyrrolo[3,4-d]thiazol-2-yl)-5′-methoxy-6-methyl-[4,4′-bipyridine]-3-carboxamide [Example 641]
IC50 (DLD1 BRCA2 (−/−) cells; 7-day CellTiter-Glo): 0.001 to 0.1 µM | IC50 (DLD1 WT cells; 7-day CellTiter-Glo): ≥ 10 µM

Molecule: COc1cnc(Cl)cc1-c1cc(C)ncc1C(=O)Nc1nc2c(s1)CN(C(=O)[C@H]1C[C@@H](OC(F)(F)F)C1)C2 [Example 25, 2′-chloro-5′-methoxy-6-methyl-N-(5-((1s,3s)-3-(trifluoromethoxy)cyclobutane-1-carbonyl)-5,6-dihydro-4H-pyrrolo[3,4-d]thiazol-2-yl)-[4,4′-bipyridine]-3-carboxamide]
IC50 [1]: 1 to 15 nM | IC50 (DLD1 BRCA2 (−/−) cells; [3]): 0.001 to 0.1 µM

Molecule: COc1cnc(Cl)cc1-c1cc(C)ncc1C(=O)Nc1nc2c(s1)CN(C(=O)c1c3c(nn1C)CCC3)C2 [Example 54, 2′-chloro-5′-methoxy-6-methyl-N-(5-(2-methyl-2,4,5,6-tetrahydrocyclopenta[c]pyrazole-3-carbonyl)-5,6-dihydro-4H-pyrrolo[3,4-d]thiazol-2-yl)-[4,4′-bipyridine]-3-carboxamide]
IC50 [1]: 1 to 15 nM | IC50 (DLD1 BRCA2 (−/−) cells; [3]): 0.001 to 0.1 µM

Molecule: N-(5-(benzo[d]oxazole-2-carbonyl)-5,6-dihydro-4H-pyrrolo[3,4-d]thiazol-2-yl)-2′-chloro-5′-methoxy-6-methyl-[4,4′-bipyridine]-3-carboxamide [Example 615]
IC50 (DLD1 WT cells; 7-day CellTiter-Glo): ≥ 10 µM

Molecule: COc1cnc(Cl)cc1-c1cc(C)ncc1C(=O)Nc1nc2c(s1)CN(C(=O)c1nc(C(F)F)cnc1OC)C2 [Example 468]
IC50 ([1]; POLθ ATPase, ADP-Glo): 1 to 15 nM | IC50 (DLD1 BRCA2 (−/−) cells; [2]): 0.001 to 0.1 µM

Molecule: 2′-Chloro-N-(5-(6-chloro-4-methylpicolinoyl)-5,6-dihydro-4H-pyrrolo[3,4-d]thiazol-2-yl)-5′-methoxy-6-methyl-[4,4′-bipyridine]-3-carboxamide [Example 390]
IC50 ([1]; POLθ ATPase, ADP-Glo): 1 to 15 nM | IC50 (DLD1 BRCA2 (−/−) cells; 7-day CellTiter-Glo): 0.001 to 0.1 µM

Molecule: 2′-chloro-5′-methoxy-N-(5-(8-methoxyimidazo[1,5-a]pyridine-5-carbonyl)-5,6-dihydro-4H-pyrrolo[3,4-d]thiazol-2-yl)-6-methyl-[4,4′-bipyridine]-3-carboxamide [Example 627]
IC50 (DLD1 BRCA2 (−/−) cells; 7-day CellTiter-Glo): 0.001 to 0.1 µM

Molecule: 2′-chloro-5′-methoxy-6-methyl-N-(5-(thiazole-2-carbonyl)-5,6-dihydro-4H-pyrrolo[3,4-d]thiazol-2-yl)-[4,4′-bipyridine]-3-carboxamide [Example 608]
IC50 (DLD1 WT cells; 7-day CellTiter-Glo): ≥ 10 µM

Molecule: COc1ccc(C#N)cc1-c1cc(C)ncc1C(=O)Nc1nc2c(s1)CN(S(=O)(=O)C1CCOC1)C2 (centres unmarked)
IC50 [1]: 15 to 50 nM

Molecule: COc1cnc(Cl)cc1-c1cc(C)ncc1C(=O)Nc1nc2c(s1)CN(C(=O)c1nccn1C)C2 [Example 23, 2′-chloro-5′-methoxy-6-methyl-N-(5-(1-methyl-1H-imidazole-2-carbonyl)-5,6-dihydro-4H-pyrrolo[3,4-d]thiazol-2-yl)-[4,4′-bipyridine]-3-carboxamide]
IC50 [1]: 15 to 50 nM

Molecule: COc1ccccc1-c1cc(C)ncc1C(=O)Nc1nc2c(s1)CN(c1ccccn1)C2 (racemic)
IC50 [1]: ≥ 900 nM

Molecule: COc1ccccc1-c1cc(C)ncc1C(=O)Nc1nc2c(s1)CN(C(=O)c1nc3ccccn3n1)C2 [Example 252]
IC50 [1]: 50 to 150 nM

Molecule: COc1ccccc1-c1cc(C)ncc1C(=O)Nc1nc2c(s1)CN(C(=O)C1(C#N)CCC1)C2
IC50 [1]: 150 to 900 nM

Molecule: 2′-Chloro-5′-methoxy-6-methyl-N-(5-(3-methylpyrazine-2-carbonyl)-5,6-dihydro-4H-pyrrolo[3,4-d]thiazol-2-yl)-[4,4′-bipyridine]-3-carboxamide [Example 412]
IC50 [1]: 1 to 15 nM | IC50 (DLD1 WT cells; 7-day viability): ≥ 10 µM

Molecule: COc1cc(Cl)c(C(=O)N2Cc3nc(NC(=O)c4cnc(C)cc4-c4cc(Cl)ncc4OC)sc3C2)nn1
IC50 ([1]; POLθ ATPase, ADP-Glo): 1 to 15 nM

Molecule: CCn1cc(C(=O)N2Cc3nc(NC(=O)c4cnc(C)cc4-c4cc(Cl)ncc4OC)sc3C2)cn1 [Example 62, 2′-chloro-N-(5-(1-ethyl-1H-pyrazole-4-carbonyl)-5,6-dihydro-4H-pyrrolo[3,4-d]thiazol-2-yl)-5′-methoxy-6-methyl-[4,4′-bipyridine]-3-carboxamide]
IC50 [1]: 15 to 50 nM

Molecule: COc1cnc(Cl)cc1-c1cc(C)ncc1C(=O)Nc1nc2c(s1)CN(C(=O)c1ncc(C)nc1C)C2
IC50 ([1]; POLθ ATPase, ADP-Glo): 1 to 15 nM

Molecule: COc1ccccc1-c1cc(C)ncc1C(=O)Nc1nc2c(s1)CN(C(=O)c1cnccn1)C2
IC50 [1]: 50 to 150 nM

— patent publication US20250230171A1 (MOMA Therapeutics, Inc., priority 2023, published 2025)
